Legend:
Format in all cases: cell-based, human
Conditions in all cases: 96 h
[1] = tested on: HT29; assay: Synergistic cytotoxicity test (MTS), HT29
Description: (§1) Containing 10% bovine fetal serum, 1 mM of sodium pyruvate, 2 mM of L-glutamine, 50 U/mL of penicillin, 50 μg/ mL of streptomycin.
(§2) Human tumor cells: du145-human prostate cancer; MCF-7-human breast cancer; SK0V3-human ovarian carcinoma, HT-29-human colon cancer; A549-human non-small cell lung cancer (adenocarcinoma), H460-human non-small cell lung cancer (large cell carcinoma), and animal tumor cells: L1210-mice leukemia cells used in the following activity test experiments were all purchased from Shanghai An Yan Commercial Trade Co., Ltd.
(§3) MTS test method was used in cytotoxicity assay. The tumor cells of logarithmic phase were collected, and then the concentration of cell suspension was adjusted, 100 μL of the cell suspension was added to each well, the cells were placed at 1000-10000 cells/well (edge well filled with sterile PBS). Cells were incubated at 37° C. with 5% CO2 to make cell monolayer overspread the bottom of each well (96-well flat-bottomed microplate). 100 μL of certain concentration solution of a mixture of the fluorine-containing water-soluble platinum complex with other antitumor agents was added to each well. Each condition was measured in five replicates. The microplate was incubated at 37° C. with 5% CO2 for 96 h and checked with inverted microscope. MTS working reagent: To 2 mL of MTS (2 mg/mL, prepared by DPBS) was added 100 μL of PMS (1 mg/mL, prepared by DPBS). The cell culture medium was discarded after centrifugation, the cell culture plate was carefully washed 2-3 times with PBS. Before detecting the absorbance value (OD), to each sample containing well was added 100 μL of cell culture medium, then 20 μL of MTS working reagent was added. After incubation at 37° C. with 5% CO2 for 2 h, the OD (optical density) value was detected at 490 nm.
(§4) Each of above experiment was repeated five times, and the cell viability was calculated according to the mean OD values.
(§5) Cell Viability (%)=(treated group OD value/control group OD value)×100
(§6) Control group: the conditions are the same as the above without adding the tested drug mixture (100 μL of culture medium was added in stead), and finally the absorbance was measured at 490 nm to obtain the OD value of the tumor cells.
(§7) Drug Group-1: only the fluorine-containing water-soluble platinum complex was added under the above conditions to obtain cell viability of tumor cells.
(§8) Drug Group-2: only the other chemotherapeutic drug (active ingredient) was added under the above conditions to obtain cell viability of tumor cells.
(§9) Drug Combination Group: the fluorine-containing water-soluble platinum complex and other chemotherapeutic drugs were added simultaneously under the above conditions to obtain cell viability of tumor cell. (2) Evaluation Method:
(§10) When the fluorine-containing water-soluble platinum complexes used in combination with other chemotherapy drugs, the inhibition effect on cancer cell proliferation is enhanced or synergistic, and the effect was calculated using the following formula:
(§11) Combination Effect (%)={[(A1-X)+(A2-X)]/(A1-A2)|}×100
(§12) wherein, A1 is the cell viability of drug group-1, A2 is the cell viability of drug group-2, X is the cell viability of drug combination group, (A1-A2)| is the absolute value of the cell viability difference between the two groups.
(§13) Calculated according to the above formula, when the results of [Combination Effect (%)]>+100%, that means the effect of inhibition on cell proliferation is enhanced or synergistic (3) Experimental Result: […]

[2] = tested on: H460; assay: Synergistic cytotoxicity test (MTS), H460
Description: as §1, §2, §3, §4, §5, §6, §7, §8, §9, §10, §11, §12, §13

[3] = tested on: SK0V3; assay: Synergistic cytotoxicity test (MTS), SKOV3
Description: as §1, §2, §3, §4, §5, §6, §7, §8, §9, §10, §11, §12, §13

[4] = tested on: A549; assay: Synergistic cytotoxicity test (MTS), A549
Description: as §1, §2, §3, §4, §5, §6, §7, §8, §9, §10, §11, §12, §13

[5] = tested on: MCF7; assay: Synergistic cytotoxicity test (MTS), MCF7
Description: as §1, §2, §3, §4, §5, §6, §7, §8, §9, §10, §11, §12, §13

[6] = tested on: DU145; assay: Synergistic cytotoxicity test (MTS), DU145
Description: as §1, §2, §3, §4, §5, §6, §7, §8, §9, §10, §11, §12, §13

[7] = other chemotherapy drug (at its listed dosage) combined with Complex 2 (dosage: 1 μM)
[8] = other chemotherapy drug (at its listed dosage) combined with Complex 3 (dosage: 1 μM)
[9] = other chemotherapy drug (at its listed dosage) combined with Complex 5 (dosage: 1 μM)
[10] = other chemotherapy drug (at its listed dosage) combined with Complex 6 (dosage: 1 μM)
[11] = other chemotherapy drug (at its listed dosage) combined with Complex 2 (dosage: 1 μM), SLOV3
[12] = other chemotherapy drug (at its listed dosage) combined with Complex 3 (dosage: 1 μM), SlOV3
[13] = other chemotherapy drug (at its listed dosage) combined with Complex 5 (dosage: 1 μM), SLOV3
[14] = other chemotherapy drug (at its listed dosage) combined with Complex 6 (dosage: 1 μM), SLOV3

CCc1c2c(nc3ccc(OC(=O)N4CCC(N5CCCCC5)CC4)cc13)-c1cc3c(c(=O)n1C2)COC(=O)[C@]3(O)CC [Irinotecan]
the effect of drug combination (Combination Effect) [1, 7]: ⊚ (⊚ represents the effect of drug combination > 300%) | the effect of drug combination (Combination Effect) [1, 8]: ⊚ (⊚ represents the effect of drug combination > 300%) | the effect of drug combination (Combination Effect) [1, 9]: ⊚ (⊚ represents the effect of drug combination > 300%) | the effect of drug combination (Combination Effect) [1, 10]: ⊚ (⊚ represents the effect of drug combination > 300%) | the effect of drug combination (Combination Effect) [2, 9]: ⊚ (⊚ represents the effect of drug combination > 300%) | the effect of drug combination (Combination Effect) [2, 10]: ⊚ (⊚ represents the effect of drug combination > 300%) | the effect of drug combination (Combination Effect) [3, 11]: ⊚ (⊚ represents the effect of drug combination > 300%) | the effect of drug combination (Combination Effect) [3, 12]: ⊚ (⊚ represents the effect of drug combination > 300%) | the effect of drug combination (Combination Effect) [3, 13]: ⊚ (⊚ represents the effect of drug combination > 300%) | the effect of drug combination (Combination Effect) [3, 14]: ⊚ (⊚ represents the effect of drug combination > 300%) | the effect of drug combination (Combination Effect) [4, 7]: ⊚ (⊚ represents the effect of drug combination > 300%) | the effect of drug combination (Combination Effect) [4, 8]: ⊚ (⊚ represents the effect of drug combination > 300%) | the effect of drug combination (Combination Effect) [5, 7]: ○ (○ represents: 100% < the effect of drug combination < 300%) | the effect of drug combination (Combination Effect) [5, 8]: ○ (○ represents: 100% < the effect of drug combination < 300%) | the effect of drug combination (Combination Effect) [5, 9]: ○ (○ represents: 100% < the effect of drug combination < 300%) | the effect of drug combination (Combination Effect) [5, 10]: ○ (○ represents: 100% < the effect of drug combination < 300%) | the effect of drug combination (Combination Effect) [6, 7]: ○ (○ represents: 100% < the effect of drug combination < 300%) | the effect of drug combination (Combination Effect) [6, 8]: ○ (○ represents: 100% < the effect of drug combination < 300%) | the effect of drug combination (Combination Effect) [6, 9]: ○ (○ represents: 100% < the effect of drug combination < 300%) | the effect of drug combination (Combination Effect) [6, 10]: ○ (○ represents: 100% < the effect of drug combination < 300%)

CC(=O)O[C@H]1C(=O)[C@@]2(C)[C@H]([C@H](OC(=O)c3ccccc3)[C@]3(O)C[C@H](OC(=O)[C@H](O)[C@@H](NC(=O)c4ccccc4)c4ccccc4)C(C)=C1C3(C)C)[C@]1(OC(C)=O)CO[C@@H]1C[C@@H]2O [Paclitaxel]
the effect of drug combination (Combination Effect) [1, 7]: ⊚ (⊚ represents the effect of drug combination > 300%) | the effect of drug combination (Combination Effect) [1, 8]: ⊚ (⊚ represents the effect of drug combination > 300%) | the effect of drug combination (Combination Effect) [1, 9]: ⊚ (⊚ represents the effect of drug combination > 300%) | the effect of drug combination (Combination Effect) [1, 10]: ○ (○ represents: 100% < the effect of drug combination < 300%) | the effect of drug combination (Combination Effect) [2, 9]: ⊚ (⊚ represents the effect of drug combination > 300%) | the effect of drug combination (Combination Effect) [2, 10]: ⊚ (⊚ represents the effect of drug combination > 300%) | the effect of drug combination (Combination Effect) [3, 11]: ⊚ (⊚ represents the effect of drug combination > 300%) | the effect of drug combination (Combination Effect) [3, 12]: ⊚ (⊚ represents the effect of drug combination > 300%) | the effect of drug combination (Combination Effect) [3, 13]: ⊚ (⊚ represents the effect of drug combination > 300%) | the effect of drug combination (Combination Effect) [3, 14]: ⊚ (⊚ represents the effect of drug combination > 300%) | the effect of drug combination (Combination Effect) [4, 7]: ⊚ (⊚ represents the effect of drug combination > 300%) | the effect of drug combination (Combination Effect) [4, 8]: ⊚ (⊚ represents the effect of drug combination > 300%) | the effect of drug combination (Combination Effect) [5, 7]: ⊚ (⊚ represents the effect of drug combination > 300%) | the effect of drug combination (Combination Effect) [5, 8]: ⊚ (⊚ represents the effect of drug combination > 300%) | the effect of drug combination (Combination Effect) [5, 9]: ⊚ (⊚ represents the effect of drug combination > 300%) | the effect of drug combination (Combination Effect) [5, 10]: ⊚ (⊚ represents the effect of drug combination > 300%) | the effect of drug combination (Combination Effect) [6, 7]: ○ (○ represents: 100% < the effect of drug combination < 300%) | the effect of drug combination (Combination Effect) [6, 8]: ⊚ (⊚ represents the effect of drug combination > 300%) | the effect of drug combination (Combination Effect) [6, 9]: ⊚ (⊚ represents the effect of drug combination > 300%) | the effect of drug combination (Combination Effect) [6, 10]: ⊚ (⊚ represents the effect of drug combination > 300%)

C#Cc1cccc(Nc2ncnc3cc(OCCOC)c(OCCOC)cc23)c1 [Tarceva]
the effect of drug combination (Combination Effect) [1, 7]: ⊚ (⊚ represents the effect of drug combination > 300%) | the effect of drug combination (Combination Effect) [1, 8]: ⊚ (⊚ represents the effect of drug combination > 300%) | the effect of drug combination (Combination Effect) [1, 9]: ⊚ (⊚ represents the effect of drug combination > 300%) | the effect of drug combination (Combination Effect) [1, 10]: ⊚ (⊚ represents the effect of drug combination > 300%) | the effect of drug combination (Combination Effect) [2, 9]: ⊚ (⊚ represents the effect of drug combination > 300%) | the effect of drug combination (Combination Effect) [2, 10]: ⊚ (⊚ represents the effect of drug combination > 300%) | the effect of drug combination (Combination Effect) [3, 11]: ○ (○ represents: 100% < the effect of drug combination < 300%) | the effect of drug combination (Combination Effect) [3, 12]: ○ (○ represents: 100% < the effect of drug combination < 300%) | the effect of drug combination (Combination Effect) [3, 13]: ○ (○ represents: 100% < the effect of drug combination < 300%) | the effect of drug combination (Combination Effect) [3, 14]: ○ (○ represents: 100% < the effect of drug combination < 300%) | the effect of drug combination (Combination Effect) [4, 7]: ⊚ (⊚ represents the effect of drug combination > 300%) | the effect of drug combination (Combination Effect) [4, 8]: ⊚ (⊚ represents the effect of drug combination > 300%) | the effect of drug combination (Combination Effect) [5, 7]: ○ (○ represents: 100% < the effect of drug combination < 300%) | the effect of drug combination (Combination Effect) [5, 8]: ○ (○ represents: 100% < the effect of drug combination < 300%) | the effect of drug combination (Combination Effect) [5, 9]: ○ (○ represents: 100% < the effect of drug combination < 300%) | the effect of drug combination (Combination Effect) [5, 10]: ○ (○ represents: 100% < the effect of drug combination < 300%) | the effect of drug combination (Combination Effect) [6, 7]: ○ (○ represents: 100% < the effect of drug combination < 300%) | the effect of drug combination (Combination Effect) [6, 8]: ○ (○ represents: 100% < the effect of drug combination < 300%) | the effect of drug combination (Combination Effect) [6, 9]: ○ (○ represents: 100% < the effect of drug combination < 300%) | the effect of drug combination (Combination Effect) [6, 10]: ○ (○ represents: 100% < the effect of drug combination < 300%)
